Data on 34 compounds can be found in patent US7332504B2, “Heterocyclic substituted aminoazacycles useful as central nervous system agents” (Abbott Laboratories, priority 1999, dated 2008).

Structures can show the parent of a compound that is named as a salt. Where two headings read alike, the source gives them in different places.

The target of assay [1] is T1, neuronal nicotinic acetylcholine receptors (Rattus norvegicus, UniProt P09483+P12390).
T1 construct: crude synaptic membrane preparations from whole rat brain; from tissue; host or cells: whole rat brain, crude synaptic membranes
Kind of assay: Binding of [3H]-cytisine to neuronal nicotinic acetylcholine receptors, crude synaptic membranes from whole rat brain. As to the method:
The In Vitro protocols for determination of nicotinic acetylcholine channel receptor binding potencies of ligands were determined as follows.
Binding of [^3H]-cytisine ([^3 H]-CYT) to neuronal nicotinic acetylcholine receptors was accomplished using crude synaptic membrane preparations from whole rat brain (Pabreza et al., Molecular Pharmacol., 1990, 39:9). Washed membranes were stored at —80° C. prior to use. Frozen aliquots were slowly thawed and resuspended in 20 volumes of buffer (containing: 120 mM NaCl, 5 mM KCl, 2 mM MgCl2, 2 mM CaCl2 and 50 mM Tris-Cl, pH 7.4 @4° C.). After centrifuging at 20,000×g for 15 minutes, the pellets were resuspended in 30 volumes of buffer.
The test compounds were dissolved in water to make 10 mM stock solutions. Each solution was then diluted (1:100) with buffer (as above) and further taken through seven serial log dilutions of produce test solution from 10^−5 to 10^−11 M.
Homogenate (containing 125-150 μg protein) was added to triplicate tubes containing the range of concentrations of test compound described above and [^3H]-CYT (1.25 nM) in a final volume of 500 μL. Samples were incubated for 60 minutes at 4° C., then rapidly filtered through Whatman GF/B filters presoaked in 0.5% polyethyleneimine using 3×4 mL of ice-cold buffer. The filter are counted in 4 mL of Ecolume® (ICN). Nonspecific binding was determined in the presence of 10 μM (−)-nicotine and values were expressed as a percentage of total binding. IC50 values were determined with the RS-1 (BBN) nonlinear least squares curve-fitting program and IC50 values were converted to Ki values using the Cheng and Prusoff correction ([…].

The test system of a further assay is mouse hot plate paradigm. Kind of assay: Mouse hot plate paradigm (analgesia). Type of assay: in vivo. Conditions: ip, 0.5 h, mice, intraperitoneal, dosed 30 minutes prior to testing, hot plate 55° C., increase in tenth jump latency relative to control, read-out: minimally effective dose (MED). How it is done: An in vivo protocol was utilized to determine the effectiveness of nicotinic acetylcholine receptor ligands as analgesic agents in the mouse hot plate paradigm.
Separate groups of mice, (n=8/group) were utilized for each dose group. All drugs were administered by the intraperitoneal route of administration. Test drugs were dissolved in water to make a 6.2 mM stock solution. Animals were dosed with this solution (10 mL/kg body weight) for a 62 micromol/kg dose. Lower doses were administered similarly, following serial dilution of the stock solution in half-log increments. Animals were dosed 30 minutes prior to testing in the hot plate. The hot-plate utilized was an automated analgesia monitor (Model #AHP16AN, Omnitech Electronics, Inc. of Columbus, Ohio). The temperature of the hot plate was maintained at 55° C. and a cut-off time of 180 seconds was utilized. Latency until the tenth jump was recoreded as the dependent measure. An increase in the tenth jump latency relative to the control was considered an effect.

The mark [2] stands for this setting: [3H]-cytisine 1.25 nM, whole rat brain membranes, 60 minutes at 4° C., Ki from IC50 by Cheng and Prusoff correction, read-out: Average Ki.

For orientation: Ki means a dissociation constant, usually derived from enzyme kinetics or from competition with a known ligand.

T1 sequence (P09483 31-630): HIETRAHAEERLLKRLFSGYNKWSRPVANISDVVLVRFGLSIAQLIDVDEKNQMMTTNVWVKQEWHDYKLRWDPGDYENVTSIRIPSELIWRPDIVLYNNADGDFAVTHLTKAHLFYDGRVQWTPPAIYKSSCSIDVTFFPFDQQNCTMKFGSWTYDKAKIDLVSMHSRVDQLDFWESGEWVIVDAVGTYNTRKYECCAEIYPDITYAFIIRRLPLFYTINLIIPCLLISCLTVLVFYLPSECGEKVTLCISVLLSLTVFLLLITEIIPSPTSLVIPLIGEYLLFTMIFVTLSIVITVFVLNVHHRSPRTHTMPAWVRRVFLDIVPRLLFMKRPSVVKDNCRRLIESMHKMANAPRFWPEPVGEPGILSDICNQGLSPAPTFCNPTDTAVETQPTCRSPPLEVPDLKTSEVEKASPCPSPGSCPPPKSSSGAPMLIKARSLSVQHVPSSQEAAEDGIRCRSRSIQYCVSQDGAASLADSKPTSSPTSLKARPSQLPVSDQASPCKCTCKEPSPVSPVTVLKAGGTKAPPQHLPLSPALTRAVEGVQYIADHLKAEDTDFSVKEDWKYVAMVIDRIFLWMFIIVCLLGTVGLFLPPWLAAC
T1 sequence (P12390 25-500): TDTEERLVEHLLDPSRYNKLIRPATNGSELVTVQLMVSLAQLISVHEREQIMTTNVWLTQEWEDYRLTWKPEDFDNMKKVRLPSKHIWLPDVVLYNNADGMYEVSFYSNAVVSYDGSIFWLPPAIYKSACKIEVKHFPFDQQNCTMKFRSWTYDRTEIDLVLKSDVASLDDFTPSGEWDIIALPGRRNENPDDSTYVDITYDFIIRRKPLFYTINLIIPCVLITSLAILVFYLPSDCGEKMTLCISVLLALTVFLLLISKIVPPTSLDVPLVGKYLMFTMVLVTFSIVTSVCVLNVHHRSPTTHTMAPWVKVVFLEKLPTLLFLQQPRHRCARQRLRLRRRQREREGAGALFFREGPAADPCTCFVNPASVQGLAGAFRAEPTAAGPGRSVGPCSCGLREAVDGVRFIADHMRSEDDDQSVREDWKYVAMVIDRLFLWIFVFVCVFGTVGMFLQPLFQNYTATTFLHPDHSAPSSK

In turn, `N[C@H]1CCN(c2cnc(Cl)c(Cl)c2)C1` [Example 19, (3S)-1-(5,6-dichloro-3-pyridinyl)pyrrolidinylamine dihydrochloride] displayed a Ki in assay [1] of 0.05 nM. Further, in the assay with mouse hot plate paradigm, the minimal effective dose stood at 6.2 µmol/kg. In assay [1], `CN[C@H]1CCN(c2cncc(C(F)(F)F)c2)C1` [Example 14, N-methyl-N-{(3S)-1-[5-(trifluoromethyl)-3-pyridinyl]pyrrolidinyl}amine hydrochloride] displayed a Ki of 6.3 nM. `CN[C@@H]1CCN(c2cnc(Cl)c(Cl)c2)C1` [Example 22, N-[(3R)-1-(5,6-dichloro-3-pyridinyl)pyrrolidinyl]-N-methylamine hydrochloride] came in with a Ki in assay [1] of 13 nM. The minimal effective dose with mouse hot plate paradigm was found to be 19 µmol/kg.

Turning to `NC1CCCN(c2ccc(Cl)nc2)C1` (stereo not drawn) [Example 38, 1-(6-chloro-3-pyridinyl)-3-piperidinylamine 4-methylbenzenesulfonate], in assay [1], the Ki came to 0.51 nM. In the assay with mouse hot plate paradigm, the minimal effective dose is 6.2 µmol/kg.

`CN[C@@H]1CCCN(c2cccnc2)C1` [Example 44, N-methyl-N-[(3R)-1-(3-pyridinyl)piperidinyl]amine dihydrochloride] gave a Ki in assay [1] of 205 nM.

`Cc1cc(N2CC[C@H](N)C2)cnc1Cl` [Example 17, (3S)-1-(6-chloro-5-methyl-3-pyridinyl)pyrrolidinylamine dihydrochloride] had a Ki in assay [1] of 0.03 nM. The minimal effective dose in the assay on mouse hot plate paradigm was found to be 6.2 µmol/kg.

With `CN[C@@H]1CCN(c2cnc(Cl)c(C)c2)C1` [Example 16, N-[(3R)-1-(6-chloro-5-methyl-3-pyridinyl)pyrrolidinyl]-N-methylamine dihydrochloride], the Ki in assay [1] was found to be 5.1 nM. Moreover, the minimal effective dose in the assay on mouse hot plate paradigm worked out at 1.9 µmol/kg. Taken in the same sequence, the figures for `CN[C@H]1CCN(c2cnc(Cl)c(Cl)c2)C1` [Example 20, N-[(3S)-1-(5,6-dichloro-3-pyridinyl)pyrrolidinyl]-N-methylamine hydrochloride] were 0.59 nM and 19 µmol/kg.

`N[C@@H]1CCN(c2ccc(Cl)nc2)C1` [Example 4, (3R)-1-(6-chloro-3-pyridinyl)pyrrolidinylamine 4-methylbenzenesulfonate] had a Ki in assay [1] of 0.22 nM. Further, the minimal effective dose with mouse hot plate paradigm worked out at 1.9 µmol/kg. Compound `CN(C)[C@@H]1CCN(c2ccc(Cl)nc2)C1` [Example 6, N-[(3R)-1-(6-chloro-3-pyridinyl)pyrrolidinyl]-N,N-dimethylamine 4-methylbenzenesulfonate] returned a Ki in assay [1] of 100 nM. Same read-out and setting: to `C[C@H]1CCN(c2ccc(Cl)nc2)C[C@H]1N` (relative stereo) [Example 39, (cis) 1-(6-chloro-3-pyridinyl)-4-methyl-3-piperidinylamine hydrochloride] belongs 85 nM. With `CN[C@H]1CCN(c2cnc(F)c(C)c2)C1` [Example 26, N-[(3S)-1-(6-fluoro-5-methyl-3-pyridinyl)pyrrolidinyl]-N-methylamine dihydrochloride], the Ki in assay [1] was 1.5 nM. In assay [1], `CN[C@@H]1CCN(c2ccc(Cl)nc2)C1` [Example 5, N-[(3R)-1-(6-chloro-3-pyridinyl)pyrrolidinyl]-N-methylamine hydrochloride] yielded a Ki of 5.5 nM. Besides, the minimal effective dose in the assay with mouse hot plate paradigm came out at 62 µmol/kg.

Regarding `CN(C)[C@H]1CCN(c2ccc(Cl)nc2)C1` [Example 3, N-[(3S)-1-(6-chloro-3-pyridinyl)pyrrolidinyl]-N,N-dimethylamine 4-methylbenzenesulfonate], in assay [1], the Ki came out at 61 nM. The minimal effective dose in the assay with mouse hot plate paradigm is 62 µmol/kg. The compound `Cc1cc(N2CC[C@@H](N)C2)cnc1F` [Example 27, (3R)-1-(6-fluoro-5-methyl-3-pyridinyl)pyrrolidinylamine hydrochloride] returned a Ki in assay [1] of 0.44 nM.

For the compound `N[C@@H]1CCCN(c2cccnc2)C1` [Example 43, (3R)-1-(3-pyridinyl)piperidinylamine bis(4-methylbenzenesulfonate)], in assay [1], the Ki came to 1.1 nM. In addition, the minimal effective dose in the assay on mouse hot plate paradigm stood at 0.62 µmol/kg.

`CN[C@H]1CCCN(c2ccc(Cl)nc2)C1` [Example 46, N-[(3S)-1-(6-chloro-3-pyridinyl)piperidin-3-yl]-N-methylamine dihydrochloride] registered a Ki in assay [1] of 60 nM. Besides, the minimal effective dose with mouse hot plate paradigm was determined as 62 µmol/kg. In turn, `CN[C@@H]1CCN(c2cnc(F)c(C)c2)C1` [Example 28, N-[(3R)-1-(6-fluoro-5-methyl-3-pyridinyl)pyrrolidinyl]-N-methylamine dihydrochloride] showed a Ki in assay [1] of 39 nM.

`N[C@H]1CCN(c2ccc(Cl)nc2)C1` [Example 2, (3S)-1-(6-chloro-3-pyridinyl)pyrrolidinylamine dihydrochloride] registered a Ki in assay [1] of 0.1 nM. The minimal effective dose in the assay on mouse hot plate paradigm stood at 6.2 µmol/kg. `CN[C@H]1CCCN(c2cccnc2)C1` [Example 42, N-methyl-N-[(3S)-1-(3-pyridinyl)piperidin-3-yl]amine bis(4-methylbenzenesulfonate)] showed a Ki in assay [1] of 83 nM. Further, in the assay with mouse hot plate paradigm, the minimal effective dose was found to be 62 µmol/kg.

Take `N[C@H]1CCN(c2cccnc2)C1` [Example 8, (3S)-1-(3-pyridinyl)pyrrolidinylamine 4-methylbenzenesulfonate]: in assay [1], the Ki turned out to be 0.23 nM. Moreover, the minimal effective dose with mouse hot plate paradigm stood at 19 µmol/kg. For `N[C@H]1CCN(c2cncc([N+](=O)[O-])c2)C1` [Example 29, (3S)-1-(5-nitro-3-pyridinyl)pyrrolidinylamine fumarate] the same measures were 0.7 nM and 19 µmol/kg.

Turning to `N[C@H]1CCCN(c2cccnc2)C1` [Example 41, (3S)-1-(3-pyridinyl)piperidinylamine bis(4-methylbenzenesulfonate)], in assay [1], the Ki worked out at 0.89 nM. Besides, the minimal effective dose in the assay with mouse hot plate paradigm was 19 µmol/kg. In assay [1], `N[C@@H]1CCN(c2cncc(C(F)(F)F)c2)C1` [Example 11, (3R)-1-[5-(trifluoromethyl)-3-pyridinyl]pyrrolidinylamine dihydrochloride] came in with a Ki of 3 nM. The compound `COc1cc(N2CC[C@H](N)C2)cnc1Cl` [Example 23, (3S)-1-(6-chloro-5-methoxy-3-pyridinyl)pyrrolidinylamine dihydrochloride] had a Ki in assay [1] of 0.13 nM. Also, in the assay with mouse hot plate paradigm, the minimal effective dose was 62 µmol/kg. As to `NC1CCN(c2ccc(Cl)nc2)CC1` [Example 37, 1-(6-chloro-3-pyridinyl)-4-piperidinylamine 4-methylbenzenesulfonate], in assay [1] (setting [2]), the Ki was 92 nM. Take `CN[C@@H]1CCN(c2cncc(C(F)(F)F)c2)C1` [Example 12, N-methyl-N-{(3R)-1-[5-(trifluoromethyl)-3-pyridinyl]pyrrolidinyl}amine hydrochloride]: the Ki in assay [1] (setting [2]) was determined as 114 nM. In turn, `N[C@H]1CCN(c2cncc(C(F)(F)F)c2)C1` [Example 13, (3S)-1-[5-(trifluoromethyl)-3-pyridinyl]pyrrolidinylamine dihydrochloride] came in with a Ki in assay [1] of 1 nM.

Compound `C[C@@H]1CCN(c2ccc(Cl)nc2)C[C@H]1N` (relative stereo) [Example 40, (trans) 1-(6-chloro-3-pyridinyl)-4-methyl-3-piperidinylamine hydrochloride] gave a Ki in assay [1] of 5.4 nM. For `CN[C@@H]1CCN(c2cncc([N+](=O)[O-])c2)C1` [Example 32, N-methyl-N-[(3R)-1-(5-nitro-3-pyridinyl)pyrrolidinyl]amine fumarate], in assay [1], the affinity corresponds to a Ki of 195 nM. The same measure, in the same setting: the figure for `CN[C@H]1CCN(c2cncc([N+](=O)[O-])c2)C1` [Example 30, N-methyl-N-[(3S)-1-(5-nitro-3-pyridinyl)pyrrolidinyl]amine fumarate] is 12 nM; for `NC1CCN(c2cccnc2)C1` (stereo not drawn) [Example 10, 1-(3-pyridinyl)-3-pyrrolidinylamine bis(4-methylbenzenesulfonate)] it is 0.15 nM. Same read-out and setting: to `N[C@@H]1CCN(c2cccnc2)[C@@H]1CCl` [Example 51, (2S,3R)-2-(chloromethyl)-1-(3-pyridinyl)pyrrolidinylamine dihydrochloride] belongs 714 nM.

Turning to `NC1CN(c2ccc(Cl)nc2)C1` [Example 50, 1-(6-chloro-3-pyridinyl)-3-azetidinylamine 4-methylbenzenesulfonate], in assay [1] (setting [2]), the Ki came out at 174 nM.
